Source: patent US20250136619A1, “HETEROBIFUNCTIONAL COMPOUNDS AND THEIR USE IN TREATING DISEASE” (HALDA THERAPEUTICS OPCO, INC., priority 2021, published 2025)
Like-named read-outs stand apart in the source and are kept apart here.

How the values were obtained:
HEK293 cells = experiment: Cellular growth inhibition assay (CellTiter-Glo), HEK293 cells; type: cell-based; details: HEK293 cells, three days of compound treatment, CellTiter-Glo 2.0, read-out: CTG HEK293 GI50
Experimental: (§1) HEK293 and HeLa cells were cultured in DMEM medium supplemented with 10% fetal bovine serum and 1% Penn/Strep. Cells were seeded in white 384-well plates at 500 cells/well in […] complete medium. Following seeding, plates were spun at 300×g for three minutes and cultured at 37° C. with 5% CO2 in a humidified tissue culture incubator.
(§2) After 24 hours, compounds were titrated in 100% DMSO and diluted in complete cell culture medium. […] of compound/media mixture was added to cells to bring total volume in well to […]. DMSO alone was used as a negative control. Plates were then spun at 300×g for three minutes and stored at 37° C. with 5% CO2 for three days.
(§3) On Day 0 and Day 3 of compound treatment, cell viability was quantified with CellTiter-Glo 2.0 reagent (Promega). After equilibrating microplates at room temperature for 30 minutes, 25 μL CellTiter-Glo 2.0 reagent was dispensed into each well to bring total volume to […]. Plates were mixed on shaker for 2 minutes at 500 rpm, followed by a 10-minute incubation at room temperature. Following a quick spin, luminescence readings were measured with an En Vision Plate Reader. Data was normalized to DMSO treated Day 0 and Day 3 readings. A four-parameter non-linear regression curve fit was applied to dose-response data in GraphPad Prism data analysis software to determine the half maximal growth inhibitory concentration (GI50) for each compound.

HeLa cells = experiment: Cellular growth inhibition assay (CellTiter-Glo), HeLa cells; type: cell-based; details: HeLa cells, three days of compound treatment, CellTiter-Glo 2.0, read-out: CTG HELA GI50
Experimental: as §1, §2, §3

SMILES	GI50 (HEK293 cells; Homo sapiens, 72 h) [µM]	GI50 (HeLa cells; Homo sapiens, 72 h) [µM]	GI50 (HEK293 cells) [µM]	GI50 (HeLa cells) [µM]
CCc1cnn2c(NCc3ccc(OCCOCCOCCOCCOCCOCCOCCN(C)C/C=C/C(=O)N4CCC[C@@H](n5nc(-c6ccc(Oc7ccccc7)cc6)c6c(N)ncnc65)C4)nc3)cc(N3CCCC[C@H]3CCO)nc12 [Compound I-46]	1.5 to 5	1.5 to 5	–	–
CN(CCNS(=O)(=O)c1cc(F)cc(N(C(=O)[C@@H]2CCC(=O)N2c2cc(C#N)ccn2)[C@H](C(=O)NC2CC(F)(F)C2)c2ccccc2Cl)c1)C(=O)N1N=C(c2cc(F)ccc2F)SC1(CCCN)c1ccccc1 (stereo partly drawn) [Compound I-112, 2-(3-aminopropyl)-N-[2-[[3-[[(1S)-1-(2-chlorophenyl)-2-[(3,3-difluorocyclobutyl)amino]-2-oxo-ethyl]-[(2S)-1-(4-cyano-2-pyridyl)-5-oxo-pyrrolidine-2-carbonyl]amino]-5-fluoro-phenyl]sulfonylamino]ethyl]-5-(2,5-difluorophenyl)-N-methyl-2-phenyl-1,3,4-thiadiazole-3-carboxamide]	1.5 to 5	0.5 to 1.5	–	–
CCc1cnn2c(NCc3ccc(OCCCCCOc4nc(C#N)ccc4N[C@@H](C)c4cc5cc(Cl)ccc5[nH]c4=O)nc3)cc(N3CCCC[C@H]3CCO)nc12 [Compound I-90, 5-[[(1S)-1-(6-chloro-2-oxo-1H-quinolin-3-yl)ethyl]amino]-6-[5-[5-[[[3-ethyl-5-[(2S)-2-(2-hydroxyethyl)-1-piperidyl]pyrazolo[1,5-a]pyrimidin-7-yl]aminomethyl]-2-pyridyl]oxy]pentoxy]pyridine-2-carbonitrile]	–	–	< 0.5	< 0.5
CCNC(=O)C[C@@H]1N=C(c2ccc(OCCOCCOCC(=O)N3CC(=O)N(c4cc(C#N)ccn4)[C@H](C(=O)N(c4cc(F)cc(F)c4)[C@H](C(=O)NC4CC(F)(F)C4)c4ccccc4Cl)C3)cc2)c2c(sc(C)c2C)-n2c(C)nnc21 [Compound I-105, (2S)—N-[(1S)-1-(2-chlorophenyl)-2-[(3,3-difluorocyclobutyl)amino]-2-oxo-ethyl]-1-(4-cyano-2-pyridyl)-N-(3,5-difluorophenyl)-4-[2-[2-[2-[4-[(9S)-9-[2-(ethylamino)-2-oxo-ethyl]-4,5,13-trimethyl-3-thia-1,8,11,12-tetrazatricyclo[8.3.0.0^2,6]trideca-2 (6),4,7,10,12-pentaen-7-yl]phenoxy]ethoxy]ethoxy]acetyl]-6-oxo-piperazine-2-carboxamide]	> 5	> 5	–	–
CCNC(=O)C[C@@H]1N=C(c2ccc(OCCOCCOCCOCCOCCNS(=O)(=O)c3cc(F)cc(N(C(=O)[C@@H]4CCC(=O)N4c4cc(C#N)ccn4)C(C(=O)NC4CC(F)(F)C4)c4ccccc4Cl)c3)cc2)c2c(sc(C)c2C)-n2c(C)nnc21 (stereo partly drawn) [Compound I-104, (2S)—N-[1-(2-chlorophenyl)-2-[(3,3-difluorocyclobutyl)amino]-2-oxo-ethyl]-1-(4-cyano-2-pyridyl)-N-[3-[2-[2-[2-[2-[2-[4-[(9S)-9-[2-(ethylamino)-2-oxo-ethyl]-4,5, 13-trimethyl-3-thia-1,8,11,12-tetrazatricyclo[8.3.0.0^2,6]trideca-2 (6),4,7,10,12-pentaen-7-yl]phenoxy]ethoxy]ethoxy]ethoxy]ethoxy]ethylsulfamoyl]-5-fluoro-phenyl]-5-oxo-pyrrolidine-2-carboxamide]	> 5	> 5	–	–
C=CC(=O)N1CCN([C@@H](CC2CC2)c2ccc([C@H](C)Nc3ncc4c(n3)N(CCOCCOCCOCCOCCn3cc(CNc5cc(N6CCCC[C@H]6CCO)nc6c(CC)cnn56)ccc3=O)C(=O)OC4)cc2)CC1 [Compound I-58]	0.5 to 1.5	< 0.5	–	–
CCc1cnn2c(NCc3ccc(OCCOCCOCCCCCn4c(C#N)ccc(N[C@@H](C)c5cc6cc(Cl)ccc6[nH]c5=O)c4=O)nc3)cc(N3CCCC[C@H]3CCO)nc12 [Compound I-91]	–	–	< 0.5	< 0.5
C=CC(=O)N1CCN([C@@H](CC2CC2)c2ccc([C@H](C)Nc3ncc4c(n3)N(CCOCCOCCOCCOCCOCCOCCOCCOCCON(C)C(=O)N3N=C(c5cc(F)ccc5F)SC3(CCCN)c3ccccc3)C(=O)OC4)cc2)CC1 (some centres unmarked) [Compound I-61]	1.5 to 5	0.5 to 1.5	–	–
CCc1cnn2c(NCc3ccc(OCCOCCOCCCc4cc(-c5cnc([C@H](C)Nc6nccc(N7C(=O)OC[C@@H]7[C@H](C)F)n6)cc5C)cc(C(F)(F)F)n4)nc3)cc(N3CCCC[C@H]3CCO)nc12 [Compound I-99]	–	–	< 0.5	< 0.5
CCc1cnn2c(NCc3ccc(OCCOCCOCCOCCOCCNS(=O)(=O)c4cc(F)cc(N(C(=O)[C@@H]5CCC(=O)N5c5cc(C#N)ccn5)C(C(=O)NC5CC(F)(F)C5)c5ccccc5Cl)c4)nc3)cc(N3CCCC[C@H]3CCO)nc12 (some centres unmarked) [Compound I-94]	–	–	1.5 to 5	0.5 to 1.5
C[C@@H](Nc1ccc(C#N)n(C)c1=O)c1cc2cc(Cl)c(C3CC(OCCOCCOCCOCCOCCN(C)C(=O)N4N=C(c5cc(F)ccc5F)SC4(CCCN)c4ccccc4)C3)cc2[nH]c1=O (stereo partly drawn) [Compound I-111, 2-(3-aminopropyl)-N-[2-[2-[2-[2-[2-[3-[6-chloro-3-[(1R)-1-[(6-cyano-1-methyl-2-oxo-3-pyridyl)amino]ethyl]-2-oxo-1H-quinolin-7-yl]cyclobutoxy]ethoxy]ethoxy]ethoxy]ethoxy]ethyl]-5-(2,5-difluorophenyl)-N-methyl-2-phenyl-1,3,4-thiadiazole-3-carboxamide]	1.5 to 5	0.5 to 1.5	–	–
CC(C)(C)c1[nH]cnc1/C=c1\[nH]c(=O)/c(=C/c2ccccc2)n(CCOCCOCCOCCOCC(=O)N2CC(=O)N(c3cc(C#N)ccn3)[C@H](C(=O)N(c3cc(F)cc(F)c3)[C@H](C(=O)NC3CC(F)(F)C3)c3ccccc3Cl)C2)c1=O [Compound I-110, (2S)-4-[2-[2-[2-[2-[2-[(2Z,5Z)-2-benzylidene-5-[(5-tert-butyl-1 H-imidazol-4-yl)methylene]-3,6-dioxo-piperazin-1-yl]ethoxy]ethoxy]ethoxy]ethoxy]acetyl]-N-[(1S)-1-(2-chlorophenyl)-2-[(3,3-difluorocyclobutyl)amino]-2-oxo-ethyl]-1-(4-cyano-2-pyridyl)-N-(3,5-difluorophenyl)-6-oxo-piperazine-2-carboxamide]	> 5	> 5	–	–
CCNC(=O)C[C@@H]1N=C(c2ccc(OCCOCCOCCOCCOCC(=O)N3CC(=O)N(c4cc(C#N)ccn4)[C@H](C(=O)N(c4cc(F)cc(F)c4)[C@H](C(=O)NC4CC(F)(F)C4)c4ccccc4Cl)C3)cc2)c2c(sc(C)c2C)-n2c(C)nnc21 [Compound I-106, (2S)—N-[(1S)-1-(2-chlorophenyl)-2-[(3,3-difluorocyclobutyl)amino]-2-oxo-ethyl]-1-(4-cyano-2-pyridyl)-N-(3,5-difluorophenyl)-4-[2-[2-[2-[2-[2-[4-[(9S)-9-[2-(ethylamino)-2-oxo-ethyl]-4,5,13-trimethyl-3-thia-1,8,11,12-tetrazatricyclo[8.3.0.0^2,6]trideca-2 (6),4,7, 10,12-pentaen-7-yl]phenoxy]ethoxy]ethoxy]ethoxy]ethoxy]acetyl]-6-oxo-piperazine-2-carboxamide]	> 5	> 5	–	–
